From patent publication US20250017848A1, “CARRIER OR AUXILIARY MATERIAL OF OPHTHALMIC PREPARATION, PREPARATION METHOD THEREFOR, AND APPLICATION THEREOF” (CHENGDU RUIMU BIOPHARMACEUTICALS CO., LTD., priority 2021, published 2025)
≈ marks a conversion by molar mass, not a printed value. Where “and” joins values, the source holds several entries; their conditions need not be identical. Identical values can stand only once. Blank lines part the entries; values can stand above or below the molecule they belong to.

Legend:
[1] = test system: Enterococcus faecalis ATCC29212; test: In vitro bacteriostasis test (MIC, broth microdilution); format: cell-based; settings: read-out: Minimum inhibitory concentration (MIC)
Protocol: (§1) The in vitro bacteriostasis test (MIC) was carried out on the moxifloxacin eye drop delivery system prepared in the Example. The moxifloxacin technical drug was used as the control, while the moxifloxacin eye drop delivery system prepared in Example 6 was used as the test sample, to prepare a drug sensitive plate, so that the drug sensitive plate contained 7-8 diluted concentrations of moxifloxacin technical drug (the control) and the test sample, which was obtained by dilution in a ratio of 1:2. 25 bacterial strains incubated for 18 h-24 h were chosen using inoculation loop, and transferred into sterile physiological saline to form a bacterial suspension equivalent to 0.5 MCF; the bacterial suspension was added to the liquid drug sensitive media, in which the ratio of the bacterial suspension to the liquid media was 1:200, and mixed well, then 100 μL of diluted bacterial solution was added to each well; the media was incubated at 35° C.±2° C. for 16-20 h; the growth of bacteria in each well was determined by turbidity, and observed from low concentration to high concentration. The minimum drug concentration that could inhibit bacterial growth was the MIC of the drug.

[2] = test system: Pseudomonas aeruginosa ATCC27853; test: as above; format: cell-based; settings: read-out: Minimum inhibitory concentration (MIC)
Protocol: as §1

[3] = test system: Escherichia coli ATCC25922; test: as above; format: cell-based; settings: read-out: Minimum inhibitory concentration (MIC)
Protocol: as §1

Streptococcus pneumoniae = test: as above; format: cell-based; settings: 3 unnamed strains (one per table line), read-out: Minimum inhibitory concentration (MIC)
Protocol: as §1

[4] = test system: Haemophilus influenza ATCC49247; test: as above; format: cell-based; settings: read-out: Minimum inhibitory concentration (MIC)
Protocol: as §1

[5] = test system: Streptococcus pneumoniae ATCC49619; test: as above; format: cell-based; settings: read-out: Minimum inhibitory concentration (MIC)
Protocol: as §1

[6] = test system: Staphylococcus aureus ATCC29213; test: as above; format: cell-based; settings: read-out: Minimum inhibitory concentration (MIC)
Protocol: as §1

[7] = test system: human cytomegalovirus strains HCMV-AD169; test: In vitro inhibitory activity against human cytomegalovirus (CPE in MRC-5 cells); format: cell-based; settings: for CPE of each well: 4 wells
Protocol: The eye drop delivery systems of ganciclovir prepared in the Examples were tested for its in vitro inhibitory activities against human cytomegalovirus (HCMV).
Human embryo lung fibroblasts (MRC-5) infected with human cytomegalovirus strains HCMV-AD169 were chosen and used in the experiment, and the antiviral activity of ganciclovir was investigated with half effective dose (EC50). Four groups were included in the experiment, that is, the test group of the eye drop delivery systems prepared in the Examples, the test group of ganciclovir technical drug, the negative control group (MRC-5 cells), and the positive control group (MRC-5 cells infected with HCMV-AD169). The samples of both test groups were diluted with the culture media to obtain 6 diluted concentrations: 500 μg/mL, 250 μg/mL, 125 μg/mL, 62.5 μg/mL, 31.25 μg/mL, and 15.63 μg/mL, and 4 wells were set for each diluted concentration. Cytopathic effect (CPE) was used as an indicator: 0 for no cytopathy, 1 for ≤25% cytopathy, 2 for 25%-50% cytopathy, 3 for 50%-75% cytopathy, and 4 for 75%-100% cytopathy. The half effective dose (EC50) was calculated using Reed-Munch method: EC50=10n; n=[(logarithm of the dilution degree corresponding to an efficiency of >50%)+(percentage of >50% efficiency−50%)/(percentage of >50% efficiency−percentage of <50% efficiency)×logarithm of the dilution coefficient.
The experimental procedures were as follows: MRC-5 cells were adjusting to approximate 1.5×10^5/mL, and then added a 96 well plate, 100 μL of culture media for each well. The plate was cultured in a 37° C., 5% CO2 cell incubator, and then the supernatant was discarded after the cells adhered to the wall as a monolayer. Except for the control groups, […] were added to each well of both test groups at a concentration of 100×TC50 (half of the virus infected cells obtained in the pre-experiment) and then incubated for 2 h. The supernatant was discarded. A series of test samples were added at 100 μL/well, and then the plate was further cultivated. The CPE of each well was observed. When the CPE of the positive control group reached more than 90%, the CPE of each well was recorded, and the half effective dose (EC50) was calculated using the Reed Munch method.

[8] = API concentration in rat vitreous body after eye drops (LC/MS/MS); format: in vivo, Sprague Dawley (SD) rats; settings: 0.5 h after eye drops, 20 μL/eye; for concentration at 0.5 h: Sprague Dawley, rat, vitreous body, topical, read-out: API concentration in the vitreous body (vitreum) of rats
Protocol: Unless otherwise stated, the method for verifying the result of delivering medicaments to the posterior segment of the eye was as follows:
Experimental instrument and equipment: High performance liquid chromatography, model: LC-20AD (Shimadzu, Japan); mass spectrometer: model: API4000 triple quadrupole mass spectrometer (Applied Biosystems, USA); chromatographic column: Fortis Pace C18 […], 2.1×30 mm (Fortis, UK).
Rats: Healthy adult Sprague Dawley (SD) rats were divided into a test group and a control group, with 6 eyes in each group. The test group received eye drops of the ophthalmic preparation prepared in the Example of the present invention, while the control group received the suspension of medicament (2 mg) in 5 mL of physiological saline (vortex shaking prior to use), at a dosage of 20μL/eye. 0.5 h or 1 h after administration, the animals were euthanized, and the vitreous bodies were quickly collected. The vitreous samples were homogenized and stored at-80° C. To 10 μL of vitreous homogenate, was added 90 μL of 95% ethanol, and then the solution was mixed under ultrasonic for 2 min, followed by vortex mixing for 1 min, to obtain the vitreous homogenate; to 50 μL of the homogenate, was added 175 μL of methanol, and then the resultant solution was vortex mixed for 3 min, and centrifuged at 4° C. and 12000 rpm for 10 min. The supernatant was filtered using a 0.45 μm needle filter. The filtrate was subjected to LC/MS/MS (Positive ion mode, MRM SCAN) analysis.

Compound: COc1c(N2C[C@@H]3CCCN[C@@H]3C2)c(F)cc2c(=O)c(C(=O)O)cn(C3CC3)c12 [Moxifloxacin, moxifloxacin]
- MIC [1]: 0.5 µg/mL (≈ 1.25 µM)
- MIC [2]: 4 µg/mL (≈ 9.96 µM)
- MIC [3]: 0.06 µg/mL (≈ 0.149 µM)
- MIC (Streptococcus pneumoniae): 0.25 µg/mL (≈ 0.623 µM)
- MIC [4]: ≤ 0.032 µg/mL
- MIC [5]: 0.12 µg/mL (≈ 0.299 µM)
- MIC [6]: 0.12 µg/mL (≈ 0.299 µM)

Compound: Nc1nc(O)c2ncn(COC(CO)CO)c2n1 [Ganciclovir technical drug, ganciclovir]
- Effective rate ([7]; 15.63 μg/mL): 21%
- CPE of each well ([7]; 15.63 μg/mL): 4 (4 for 75%-100% cytopathy) and 3 (3 for 50%-75% cytopathy)
- Effective rate ([7]; 31.25 μg/mL): 35%
- CPE of each well ([7]; 31.25 μg/mL): 3 (3 for 50%-75% cytopathy)
- Effective rate ([7]; 62.5 μg/mL): 64%
- CPE of each well ([7]; 62.5 μg/mL): 2 (2 for 25%-50% cytopathy) and 3 (3 for 50%-75% cytopathy)
- Effective rate ([7]; 125 μg/mL): 77%
- CPE of each well ([7]; 125 μg/mL): 2 (2 for 25%-50% cytopathy) and 1 (1 for ≤25% cytopathy)
- Effective rate ([7]; 250 μg/mL): 91%
- Effective rate ([7]; 500 μg/mL): 97%

Results, then the molecule that gave them:

- API concentration in the vitreous body (vitreum) of rats [8]: < 1 ng/g
Compound: O=C(O)CCCC[C@@H]1CCSS1 (racemic) [lipoic acid]

- concentration at 0.5 h [8]: < 1 ng/g
Compound: C[C@@H]1C[C@H]2[C@@H]3CCC4=CC(=O)C=C[C@]4(C)[C@@]3(F)[C@@H](O)C[C@]2(C)[C@@]1(O)C(=O)CO [dexamethasone]

- concentration at 0.5 h [8]: < 1 ng/g
Compound: C[C@H]1c2cccc(O)c2C(=O)C2=C(O)[C@]3(O)C(=O)C(C(N)=O)=C(O)[C@@H](N(C)C)[C@@H]3[C@@H](O)[C@@H]21 [doxycycline]
